How the values were obtained:
A549 [1] = assay: Induction of apoptosis in human A549 cells assessed as early apoptotic cells at […] measured after 24 hrs by AnnexinV-FITC/PI staining based flow cytometry (reference value: 1.26%); type: functional; settings: dose 2.5 µM
A549 [2] = assay: Induction of apoptosis in human A549 cells assessed as early apoptotic cells at 5 uM measured after 24 hrs by AnnexinV-FITC/PI staining based flow cytometry (reference value: 1.26%); type: functional
A549 [3] = assay: Induction of apoptosis in human A549 cells assessed as late apoptotic cells at 5 uM measured after 24 hrs by AnnexinV-FITC/PI staining based flow cytometry (reference value: 1.47%); type: functional
A549 [4] = assay: Induction of apoptosis in human A549 cells assessed as late apoptotic cells at 10 uM measured after 24 hrs by AnnexinV-FITC/PI staining based flow cytometry (reference value: 1.47%); type: functional
A549 [5] = assay: Induction of cell cycle arrest in human A549 cells assessed as accumulation of cells at S phase at 5 uM incubated for 24 hrs by propidium iodide staining based flow cytometry (reference value: 38.18%); type: functional
[6] = Tmax in Sprague-Dawley rat at 10 mg/kg, po by LC-MS/MS analysis; type: ADME, organism-based; settings: in vivo
[7] = molecular target: T1, Receptor-type tyrosine-protein kinase FLT3 (Homo sapiens, UniProt P36888); assay: Inhibition of Flt3 (unknown origin)
T1 sequence (P36888 whole entry): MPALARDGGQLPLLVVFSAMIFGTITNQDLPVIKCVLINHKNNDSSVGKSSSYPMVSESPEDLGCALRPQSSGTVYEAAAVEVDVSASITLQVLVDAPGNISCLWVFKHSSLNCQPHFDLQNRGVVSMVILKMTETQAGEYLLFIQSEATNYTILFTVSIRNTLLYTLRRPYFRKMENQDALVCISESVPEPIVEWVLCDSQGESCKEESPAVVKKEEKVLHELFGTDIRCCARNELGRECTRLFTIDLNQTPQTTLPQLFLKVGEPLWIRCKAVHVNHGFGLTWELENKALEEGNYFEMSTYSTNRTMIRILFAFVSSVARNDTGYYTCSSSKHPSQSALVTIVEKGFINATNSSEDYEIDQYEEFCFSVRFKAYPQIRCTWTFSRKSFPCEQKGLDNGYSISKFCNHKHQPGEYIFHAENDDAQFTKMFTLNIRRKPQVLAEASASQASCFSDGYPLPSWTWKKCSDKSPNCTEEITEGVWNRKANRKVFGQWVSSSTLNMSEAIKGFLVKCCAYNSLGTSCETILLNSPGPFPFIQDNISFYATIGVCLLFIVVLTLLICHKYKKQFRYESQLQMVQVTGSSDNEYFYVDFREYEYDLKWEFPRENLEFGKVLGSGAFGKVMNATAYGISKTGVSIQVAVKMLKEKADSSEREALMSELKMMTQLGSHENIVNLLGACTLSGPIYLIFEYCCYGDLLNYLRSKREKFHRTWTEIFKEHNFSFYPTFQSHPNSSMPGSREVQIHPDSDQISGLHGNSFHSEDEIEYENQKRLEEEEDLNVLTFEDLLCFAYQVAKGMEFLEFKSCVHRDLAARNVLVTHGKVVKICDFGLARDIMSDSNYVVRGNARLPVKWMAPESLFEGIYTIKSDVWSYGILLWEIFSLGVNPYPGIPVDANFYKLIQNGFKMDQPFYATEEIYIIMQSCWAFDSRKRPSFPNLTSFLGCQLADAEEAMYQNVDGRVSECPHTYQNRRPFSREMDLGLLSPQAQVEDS

MCF7 = assay: cells; settings: Homo sapiens, MCF7, 72 h

O=C(NCCCN1CCOCC1)c1cc(Oc2ccc(NC(=O)c3cn(-c4ccc(F)c(Cl)c4)c4ncccc4c3=O)cc2F)ccn1
Activity (A549 [1]): 1.57% | Activity (A549 [2]): 3.02% | Activity (A549 [3]): 4.29% | Activity (A549 [4]): 8.25% | Activity (A549 [5]): 30.85% | Tmax [6]: 2.7 h | IC50 [7]: > 100 µM | IC50 (MCF7): 2350 nM
